In US20260297542A1, “HERBICIDE RESISTANT PLANTS” (SYNGENTA CROP PROTECTION AG, priority 2023, published 2026):
Positions count from the first letter of the chain named.

Tests used:
Assay in all cases: E. coli hemG growth inhibition by herbicide, AtPPO1 variant
Type in all cases: cell-based
Details in all cases: read-out: percentage growth inhibition
AtPPO1 K270M = biological target: T1, AtPPO1 K270M (Arabidopsis thaliana, UniProt P55826, K270M)
T1 construct: expressed in transfected cells; host or cells: E. coli BL21(DE3) hemG, pET24a plasmid
T1 sequence (P55826 35-537 K270M): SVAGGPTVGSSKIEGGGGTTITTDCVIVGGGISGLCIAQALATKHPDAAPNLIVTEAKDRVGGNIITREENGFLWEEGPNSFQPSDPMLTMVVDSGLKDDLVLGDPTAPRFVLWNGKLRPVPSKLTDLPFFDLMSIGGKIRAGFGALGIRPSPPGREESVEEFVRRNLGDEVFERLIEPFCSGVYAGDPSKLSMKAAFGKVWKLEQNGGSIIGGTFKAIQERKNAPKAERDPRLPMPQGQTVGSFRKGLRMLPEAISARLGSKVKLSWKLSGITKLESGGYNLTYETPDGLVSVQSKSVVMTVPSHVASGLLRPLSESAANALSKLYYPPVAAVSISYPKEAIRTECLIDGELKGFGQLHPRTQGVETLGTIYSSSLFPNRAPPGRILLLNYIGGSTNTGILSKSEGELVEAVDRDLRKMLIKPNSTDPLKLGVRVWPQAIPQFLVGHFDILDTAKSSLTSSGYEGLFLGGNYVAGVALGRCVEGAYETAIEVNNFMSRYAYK
Method in brief: (§1)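 AtPPO1 variants from a site-saturation library, codon-optimised and T7-driven in pET24a, were expressed in E. coli BL21(DE3) lacking hemG (hemG replaced by CmR). Growth in Terrific broth with 0.1 mM IPTG plus 6.25 ppm herbicide 0 or E, 0.78 ppm herbicide B, or DMSO was read as OD600 after 24 h at 37° C; inhibition was calculated against the DMSO culture.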

AtPPO1 P413G = biological target: T2, AtPPO1 P413G (Arabidopsis thaliana, UniProt P55826, P413G)
T2 construct: expressed in transfected cells; host or cells: E. coli BL21(DE3) hemG (pET24a, T7 promoter)
T2 sequence (P55826 35-537 P413G): T1 sequence (P55826 35-537 K270M) with M236K, P379G
Method in brief: as §1

AtPPO1 V206G = biological target: T3, AtPPO1 V206G (Arabidopsis thaliana, UniProt P55826, V206G)
T3 construct: expressed in transfected cells; host or cells: E. coli BL21(DE3) hemG (hemG replaced by CmR), pET24a plasmid
T3 sequence (P55826 35-537 V206G): T1 sequence (P55826 35-537 K270M) with V172G, M236K
Method in brief: as §1

AtPPO1 V511L = biological target: T4, AtPPO1 V511L (Arabidopsis thaliana, UniProt P55826, V511L)
T4 construct: expressed in transfected cells; host or cells: E. coli BL21(DE3) hemG, pET24a plasmid
T4 sequence (P55826 35-537 V511L): T1 sequence (P55826 35-537 K270M) with M236K, V477L
Method in brief: as §1

`CCOC(=O)[C@]1(C)CC(c2cc(-n3c(=O)n(C)c(=S)n(C)c3=O)c(F)cc2Cl)=NO1` [Herbicide D, ethyl (5S)-3-[2-chloro-5-(3,5-dimethyl-2,6-dioxo-4-thioxo-1,3,5-triazinan-1-yl)-4-fluoro-phenyl]-5-methyl-4H-isoxazole-5-carboxylate] gave an inhibition at 6.25 ppm (AtPPO1 K270M) of 23%, an inhibition at 6.25 ppm (AtPPO1 P413G) of 32% and an inhibition at 6.25 ppm (AtPPO1 V206G) of 19%. It also gave an inhibition at 6.25 ppm (AtPPO1 V511L) of 18%.

In the case of `C#CCN1C(=O)C(F)(F)Oc2cc(F)c(-n3c(=O)n(C)c(=S)n(C)c3=O)cc21` [Herbicide B, trifludimoxazin], the inhibition at 0.78 ppm (AtPPO1 K270M) is reported as 28%, the inhibition at 0.78 ppm (AtPPO1 P413G) is reported as 16% and the inhibition at 0.78 ppm (AtPPO1 V206G) is reported as 32%. The inhibition at 0.78 ppm (AtPPO1 V511L) was 18%.

`CC(C)N(C)S(=O)(=O)NC(=O)c1cc(-n2c(=O)cc(C(F)(F)F)n(C)c2=O)c(F)cc1Cl` [Herbicide E, saflufenacil] gave an inhibition at 6.25 ppm (AtPPO1 K270M) of 29%, an inhibition at 6.25 ppm (AtPPO1 P413G) of 59% and an inhibition at 6.25 ppm (AtPPO1 V206G) of 58%. The inhibition at 6.25 ppm (AtPPO1 V511L) was 46%.
